Experimental findings from ChEMBL document CHEMBL1909046, “DrugMatrix in vitro pharmacology data” are described below.

The target in one experiment is D(3) dopamine receptor (Homo sapiens, UniProt P35462). In words: DRUGMATRIX: Dopamine D3 radioligand binding (ligand: [3H] Spiperone). Type of experiment: cell membranes, CHO, Membrane. The note with it: for Ki: read-out: Ki.
The next experiment has as its target T1, Endothelin-1 receptor (Homo sapiens, UniProt P25101). Also: in other assays of this panel Not Active means under 50% inhibition at 10 µM.
T1 sequence (P25101 whole entry): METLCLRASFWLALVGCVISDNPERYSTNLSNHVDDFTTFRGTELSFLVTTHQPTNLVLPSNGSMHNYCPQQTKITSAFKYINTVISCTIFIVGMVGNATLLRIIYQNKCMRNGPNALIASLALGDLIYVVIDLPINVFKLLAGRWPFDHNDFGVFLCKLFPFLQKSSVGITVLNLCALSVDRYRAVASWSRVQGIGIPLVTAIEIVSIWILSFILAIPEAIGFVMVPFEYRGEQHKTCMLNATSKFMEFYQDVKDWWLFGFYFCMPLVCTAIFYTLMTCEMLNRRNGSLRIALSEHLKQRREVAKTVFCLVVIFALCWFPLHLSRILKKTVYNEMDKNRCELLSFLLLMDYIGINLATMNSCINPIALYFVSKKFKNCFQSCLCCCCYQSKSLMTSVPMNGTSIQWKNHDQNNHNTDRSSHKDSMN
It is filed as cell membranes, Membrane. The note with it: cho-k1.

For experiment [1], the target named is Aldo-keto reductase family 1 member B1 (Rattus norvegicus, UniProt P07943). It is filed as tissue-based, Lens of camera-type eye.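 Also: inhibition of aldose reductase enzyme activity, measured with DL-glyceraldehyde as the substrate; in other assays of this panel Not Active means under 50% inhibition at 10 µM.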
The target in experiment [2] is Beta-2 adrenergic receptor (Homo sapiens, UniProt P07550). In words: DRUGMATRIX: Adrenergic beta2 radioligand binding (ligand: [3H] CGP-12177). It is filed as cell membranes, CHO, Membrane. The note with it: cho; Not Active = under 50% inhibition at 10 µM.
Beta-2 adrenergic receptor, sequence (P07550 whole entry): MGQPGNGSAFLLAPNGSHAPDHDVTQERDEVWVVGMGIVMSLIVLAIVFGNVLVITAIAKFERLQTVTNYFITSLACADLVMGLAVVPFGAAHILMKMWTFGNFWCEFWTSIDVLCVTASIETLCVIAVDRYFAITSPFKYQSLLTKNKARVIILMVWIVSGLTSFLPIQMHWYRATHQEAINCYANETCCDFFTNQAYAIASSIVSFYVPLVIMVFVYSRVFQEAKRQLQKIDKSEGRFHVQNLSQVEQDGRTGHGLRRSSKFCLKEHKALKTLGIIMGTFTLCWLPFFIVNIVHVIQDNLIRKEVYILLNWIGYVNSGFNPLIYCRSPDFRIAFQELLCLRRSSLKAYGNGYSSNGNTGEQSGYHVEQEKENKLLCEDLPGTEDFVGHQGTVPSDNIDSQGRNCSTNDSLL
The target in another experiment is D(1A) dopamine receptor (Homo sapiens, UniProt P21728). In words: DRUGMATRIX: Dopamine D1 radioligand binding (ligand: [3H] SCH-23390). It is filed as cell membranes, CHO, Membrane. The note with it: Not Active = under 50% inhibition at 10 µM.
D(1A) dopamine receptor, sequence (P21728 whole entry): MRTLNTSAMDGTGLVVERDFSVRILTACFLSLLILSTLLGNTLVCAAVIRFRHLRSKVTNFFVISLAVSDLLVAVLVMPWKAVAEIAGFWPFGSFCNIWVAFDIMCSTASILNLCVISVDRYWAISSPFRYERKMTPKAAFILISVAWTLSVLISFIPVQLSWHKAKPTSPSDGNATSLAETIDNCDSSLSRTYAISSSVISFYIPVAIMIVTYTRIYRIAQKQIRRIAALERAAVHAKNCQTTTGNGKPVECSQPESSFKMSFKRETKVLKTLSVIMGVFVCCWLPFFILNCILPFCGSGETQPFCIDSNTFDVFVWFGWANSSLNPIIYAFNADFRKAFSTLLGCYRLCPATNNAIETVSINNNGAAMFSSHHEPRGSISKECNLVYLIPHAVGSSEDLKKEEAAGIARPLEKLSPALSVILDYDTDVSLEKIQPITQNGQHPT

One may read the IC50 as the concentration needed to halve the response being measured. The Ki is the equilibrium dissociation constant of an inhibitor or competing ligand from its target.

Each structure is given as a SMILES string.

D(3) dopamine receptor, sequence (P35462 whole entry): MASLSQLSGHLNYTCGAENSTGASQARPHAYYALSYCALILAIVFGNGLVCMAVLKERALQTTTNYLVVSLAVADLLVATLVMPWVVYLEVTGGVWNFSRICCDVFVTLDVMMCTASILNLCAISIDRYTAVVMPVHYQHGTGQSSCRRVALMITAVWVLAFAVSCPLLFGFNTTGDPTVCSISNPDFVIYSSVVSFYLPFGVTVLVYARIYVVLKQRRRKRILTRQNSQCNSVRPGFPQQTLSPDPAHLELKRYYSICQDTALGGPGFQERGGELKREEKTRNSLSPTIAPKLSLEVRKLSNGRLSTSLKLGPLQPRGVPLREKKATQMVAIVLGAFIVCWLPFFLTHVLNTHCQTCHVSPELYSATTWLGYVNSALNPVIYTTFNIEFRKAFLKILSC

For `CN(C)CC[C@@H](c1ccc(Cl)cc1)c1ccccn1` [DEXCHLORPHENIRAMINE], the IC50 result (at D(3) dopamine receptor (cho); at Endothelin-1 receptor; in experiment [1]; in experiment [2]; at D(1A) dopamine receptor (cho)) was “Not Active” throughout.

With `C[C@@H]1CC[C@@]2(OC1)O[C@H]1[C@@H](O)[C@H]3[C@@H]4CC[C@H]5C[C@@H](O[C@@H]6O[C@H](CO)[C@H](O[C@@H]7O[C@H](CO)C(O)[C@H](O[C@@H]8OC[C@@H](O)[C@H](O)[C@H]8O)[C@H]7O[C@@H]7O[C@H](CO)[C@H](O)[C@H](O[C@@H]8O[C@H](CO)[C@@H](O)[C@H](O)[C@H]8O)[C@H]7O)[C@H](O)[C@H]6O)[C@H](O)C[C@]5(C)[C@H]4CC[C@]3(C)[C@H]1[C@@H]2C` (stereo partly drawn) [DIGITONIN], the 50% inhibitory concentration (IC50) entry (on D(3) dopamine receptor (cho); against Endothelin-1 receptor; in experiment [1]; in experiment [2]; at D(1A) dopamine receptor (cho)) was “Not Active” in each case.

For the compound `OC(CCCN1CCCCC1)(c1ccccc1)c1ccccc1` [DIPHENIDOL], the IC50 was 2310 nM at D(3) dopamine receptor (read-out: IC50); “Not Active” on Endothelin-1 receptor; “Not Active” in experiment [1]; “Not Active” in experiment [2]; “Not Active” on D(1A) dopamine receptor (cho). Moreover, on D(3) dopamine receptor, the Ki turned out to be 785 nM.

On to `C[C@H]1O[C@@H](n2cc(F)c(=O)[nH]c2=O)[C@H](O)[C@@H]1O` [DOXIFLURIDINE], for which the IC50 entry (at D(3) dopamine receptor (cho); against Endothelin-1 receptor; in experiment [1]; in experiment [2]; at D(1A) dopamine receptor (cho)) was “Not Active” throughout.

As for `Cn1c(=O)c2c(ncn2CC(O)CO)n(C)c1=O` (stereo not drawn) [DYPHYLLINE], the IC50 entry (at D(3) dopamine receptor (cho); on Endothelin-1 receptor; in experiment [1]; in experiment [2]; at D(1A) dopamine receptor (cho)) was “Not Active” throughout.

For the compound `CC[C@H]1CN2CCc3cc(OC)c(OC)cc3[C@@H]2C[C@@H]1C[C@H]1NCCc2cc(OC)c(OC)cc21` [EMETINE], the IC50 entry (at D(3) dopamine receptor (cho); against Endothelin-1 receptor; in experiment [1]; in experiment [2]; at D(1A) dopamine receptor (cho)) was “Not Active” throughout.

With `C[C@@H](CO)NC(=O)[C@@H]1C=C2c3cccc4[nH]cc(c34)C[C@H]2N(C)C1` [ERGONOVINE], the half-maximal inhibitory concentration (IC50) is 567 nM on D(3) dopamine receptor (read-out: IC50); “Not Active” against Endothelin-1 receptor; “Not Active” in experiment [1]; “Not Active” in experiment [2]; 5900 nM at D(1A) dopamine receptor (read-out: IC50). For the same compound, the Ki on D(3) dopamine receptor turned out to be 193 nM; at D(1A) dopamine receptor (read-out: Ki) it was 2950 nM.

As to `COC(=O)CCc1ccc(OCC(O)CNC(C)C)cc1` (stereo not drawn) [ESMOLOL], the IC50 entry (at D(3) dopamine receptor (cho); against Endothelin-1 receptor; in experiment [1]; in experiment [2]; at D(1A) dopamine receptor (cho)) was “Not Active” throughout.

For the compound `CCC1(C)CC(=O)NC1=O` (stereo not drawn) [ETHOSUXIMIDE], the IC50 entry (on D(3) dopamine receptor (cho); on Endothelin-1 receptor; in experiment [1]; in experiment [2]; at D(1A) dopamine receptor (cho)) was “Not Active” each time.

In the case of `C#C[C@]1(OC(C)=O)CC[C@H]2[C@@H]3CCC4=C[C@@H](OC(C)=O)CC[C@@H]4[C@H]3CC[C@@]21C` [ETHYNODIOL DIACETATE], the concentration for half-maximal inhibition (IC50) result (at D(3) dopamine receptor (cho); against Endothelin-1 receptor; in experiment [1]; in experiment [2]; at D(1A) dopamine receptor (cho)) was “Not Active” each time.

For the compound `COc1cc([C@@H]2c3cc4c(cc3[C@@H](O[C@@H]3O[C@@H]5CO[C@@H](C)O[C@H]5[C@H](O)[C@H]3O)[C@H]3COC(=O)[C@H]23)OCO4)cc(OC)c1O` [ETOPOSIDE], the 50% inhibitory concentration (IC50) entry (at D(3) dopamine receptor (cho); against Endothelin-1 receptor; in experiment [1]; in experiment [2]; at D(1A) dopamine receptor (cho)) was “Not Active” in each case.

Regarding `C=CCc1ccc(O)c(OC)c1` [EUGENOL], the IC50 result (at D(3) dopamine receptor (cho); against Endothelin-1 receptor; in experiment [1]; in experiment [2]; at D(1A) dopamine receptor (cho)) was “Not Active” each time.

Take `CC(C(=O)O)c1cccc(Oc2ccccc2)c1` (stereo not drawn) [FENOPROFEN]: the half-inhibitory concentration (IC50) result (at D(3) dopamine receptor (cho); at Endothelin-1 receptor; in experiment [1]; in experiment [2]; on D(1A) dopamine receptor (cho)) was “Not Active” throughout.

With `CC(C)(C)NC(=O)[C@H]1CC[C@H]2[C@@H]3CC[C@H]4NC(=O)C=C[C@]4(C)[C@H]3CC[C@]12C` [FINASTERIDE], the IC50 entry (at D(3) dopamine receptor (cho); on Endothelin-1 receptor; in experiment [1]; in experiment [2]; at D(1A) dopamine receptor (cho)) was “Not Active” in each case.

As for `COc1ccc2c3c1O[C@H]1C[C@@H](O)C=C[C@@]31CCN(C)C2` [GALANTAMINE], the half-inhibitory concentration (IC50) entry (on D(3) dopamine receptor (cho); at Endothelin-1 receptor; in experiment [1]; in experiment [2]; on D(1A) dopamine receptor (cho)) was “Not Active” throughout.

Consider `Nc1ccn([C@@H]2O[C@H](CO)[C@@H](O)C2(F)F)c(=O)n1` [GEMCITABINE], for which the IC50 result (at D(3) dopamine receptor (cho); against Endothelin-1 receptor; in experiment [1]; in experiment [2]; on D(1A) dopamine receptor (cho)) was “Not Active” each time.

In the case of `CC(C)=CCC/C(C)=C/CO` [GERANIOL], the 50% inhibitory concentration (IC50) entry (at D(3) dopamine receptor (cho); at Endothelin-1 receptor; in experiment [1]; in experiment [2]; at D(1A) dopamine receptor (cho)) was “Not Active” in each case.

Consider `N=C(N)NC(=O)Cc1c(Cl)cccc1Cl` [GUANFACINE], for which the IC50 entry (at D(3) dopamine receptor (cho); on Endothelin-1 receptor; in experiment [1]; in experiment [2]; on D(1A) dopamine receptor (cho)) was “Not Active” in each case.

On to `Oc1c(Cl)cc(Cl)c(Cl)c1Cc1c(O)c(Cl)cc(Cl)c1Cl` [HEXACHLOROPHENE], for which the IC50 entry (at D(3) dopamine receptor (cho); on Endothelin-1 receptor; in experiment [1]; in experiment [2]; on D(1A) dopamine receptor (cho)) was “Not Active” in each case.

Regarding `NNc1nncc2ccccc12` [HYDRALAZINE], the IC50 result (at D(3) dopamine receptor (cho); against Endothelin-1 receptor; in experiment [1]; in experiment [2]; at D(1A) dopamine receptor (cho)) was “Not Active” throughout.

Regarding `CC(=O)[C@@]1(O)CC[C@H]2[C@@H]3CCC4=CC(=O)CC[C@]4(C)[C@H]3CC[C@@]21C` [HYDROXYPROGESTERONE], the IC50 result (on D(3) dopamine receptor (cho); against Endothelin-1 receptor; in experiment [1]; in experiment [2]; on D(1A) dopamine receptor (cho)) was “Not Active” each time.

As to `COC1=C(OC)C(=O)C(CCCCCCCCCCO)=C(C)C1=O` [IDEBENONE], the IC50 result (on D(3) dopamine receptor (cho); at Endothelin-1 receptor; in experiment [1]; in experiment [2]; at D(1A) dopamine receptor (cho)) was “Not Active” throughout.

With `CC(C)NNC(=O)c1ccncc1` [IPRONIAZID], the IC50 entry (at D(3) dopamine receptor (cho); against Endothelin-1 receptor; in experiment [1]; in experiment [2]; at D(1A) dopamine receptor (cho)) was “Not Active” throughout.

As for `Cc1c(OCC(F)(F)F)ccnc1C[S+]([O-])c1nc2ccccc2[nH]1` (stereo not drawn) [LANSOPRAZOLE], the IC50 result (on D(3) dopamine receptor (cho); against Endothelin-1 receptor; in experiment [1]; in experiment [2]; on D(1A) dopamine receptor (cho)) was “Not Active” each time.

With `O=c1cc(N2CCOCC2)oc2c(-c3ccccc3)cccc12` [LY-294002], the half-maximal inhibitory concentration (IC50) entry (on D(3) dopamine receptor (cho); at Endothelin-1 receptor; in experiment [1]; in experiment [2]; on D(1A) dopamine receptor (cho)) was “Not Active” throughout.

With `COc1ccc2[nH]cc(CCNC(C)=O)c2c1` [MELATONIN], the IC50 entry (on D(3) dopamine receptor (cho); against Endothelin-1 receptor; in experiment [1]; in experiment [2]; on D(1A) dopamine receptor (cho)) was “Not Active” in each case.

With `NC(=O)C[S+]([O-])C(c1ccccc1)c1ccccc1` (stereo not drawn) [MODAFINIL], the IC50 result (on D(3) dopamine receptor (cho); against Endothelin-1 receptor; in experiment [1]; in experiment [2]; at D(1A) dopamine receptor (cho)) was “Not Active” in each case.

In the case of `CCN(CC)CCOCCC1=CCC2CC1C2(C)C` (stereo not drawn) [MYRTECAINE], the IC50 result (on D(3) dopamine receptor (cho); against Endothelin-1 receptor; in experiment [1]; in experiment [2]; at D(1A) dopamine receptor (cho)) was “Not Active” throughout.

`O=C(O)c1cccnc1Nc1cccc(C(F)(F)F)c1` [NIFLUMIC ACID]: the IC50 result (at D(3) dopamine receptor (cho); against Endothelin-1 receptor; in experiment [1]; in experiment [2]; on D(1A) dopamine receptor (cho)) was “Not Active” throughout.

Regarding `O=C(N/N=C/c1ccc([N+](=O)[O-])o1)c1cc([N+](=O)[O-])cc([N+](=O)[O-])c1O` [NIFURSOL], the IC50 result (at D(3) dopamine receptor (cho); at Endothelin-1 receptor; in experiment [1]; in experiment [2]; at D(1A) dopamine receptor (cho)) was “Not Active” in each case.
